Measured values taken from patent US20120016010A1, “RNA Interference Mediated Inhibition of BTB and CNC Homology 1, Basic Leucine Zipper Transcription Factor 1 (BACH1) Gene Expression Using Short Interfering Nucleic Acid (siNA)” (Merck Sharp & Dohme Corp, priority 2009, published 2012).
[invAb] = inverted abasic unit; d = 2'-deoxy (DNA); m = 2'-O-methyl; r = 2'-OH (RNA); f = 2'-fluoro

How the values were obtained:
[1] = test system: cigarette smoke-induced lung destruction; details: Sussan et al (2009); cited from earlier work
[2] = test system: Heme Oxygenase-1 (HO-1) protein; assay: HO-1 protein expression by Western Blot in airway epithelial cells from a COPD subject; type: cell-based, human; details: FIG. 13, positive controls, 18-hour treatment period
Method: Human airway epithelial cells were obtained by bronchoscopy from a subject with COPD (35-pack years). The cells were seeded at a density of 1×10^5 cells in a 24-well plate and incubated at 37° C. and 5% CO2 overnight. […] Whole cell lysates were created to detect Heme Oxygenase-1 (HO-1) protein expression via Western Blot.
Whole cell lysates were quantified and 5 micrograms of protein per lane were loaded into a 12.5% Tris-HCL gel. A 1:5000 dilution of Anti-Human Heme Oxygenase-1 polyclonal antibody (Assay Designs) was used to detect HO-1 protein levels. The blot was stripped and reprobed with a beta actin antibody to confirm equal loading.

Bach1 mRNA [3] = assay: Initial screen: Bach1 mRNA knock-down in mouse NIH 3T3 cells (96-well transfection, quantitative RT-PCR); type: cell-based; details: mouse NIH3T3 cells, n = 2, 24 hrs post-transfection, protocol 10 nM siNA
Bach1 mRNA [4] = assay: Initial screen: Bach1 mRNA knock-down in human A549 cells (96-well transfection, quantitative RT-PCR); type: cell-based; details: Bach1 mRNA, 10 nM siNA, human A549 cells, n = 2, mean ± S.D., normalized to GAPDH and non-targeting control, 24 hrs post-transfection

Compound	lung oxidative stress markers, alveolar cell apoptosis and the subsequent lung destruction, and pulmonary hypertension [1]	HO-1 protein expression [2]	% KD (Bach1 mRNA [3]) [%]	% KD (Bach1 mRNA [4])
CC1(C)CC[C@]2(C(=O)n3ccnc3)CC[C@]3(C)[C@H](C(=O)C=C4[C@@]5(C)C=C(C#N)C(=O)C(C)(C)[C@@H]5CC[C@]43C)[C@@H]2C1 [CDDO-Im]	significantly reduce	–	–	–
hemin	–	increased HO-1 protein expression	–	–
C[S+]([O-])CCCCN=C=S (centres unmarked) [Sulforaphane]	–	increased HO-1 protein expression	–	–
29948-DC: Bach1 siNA duplex, target site 1285; sense B GcGAGAAGuGGcAGAAcAc TTB (SEQ 45); antisense GUGuucuGccACuuCuCGcUU (SEQ 46) (sense GCGAGAAGUGGCAGAACACTT; antisense GUGUUCUGCCACUUCUCGCUU; sense: DNA at AGT, 2'-fluoro at CU, [invAb] at 5' end, 3' end, backbone not given here; antisense: sugars from the 5' end rrrffffmffmmffmfmmfmm, backbone not given here)	–	–	−16.3 ± 12.6	51.9 ± 3^ %
29966-DC: Bach1 siNA duplex, target site 1375; sense B GGccAAAGAuGGcucAGAA TTB (SEQ 81); antisense UUCuGAGccAucuuuGGccUU (SEQ 82) (sense GGCCAAAGAUGGCUCAGAATT; antisense UUCUGAGCCAUCUUUGGCCUU; sense: DNA at AGT, 2'-fluoro at CU, [invAb] at 5' end, 3' end, backbone not given here; antisense: sugars from the 5' end rrrfmmmffmfffffmmffmm, backbone not given here)	–	–	−12.7 ± 7.4	57.3 ± 5.9%
29965-DC: Bach1 siNA duplex, target site 596; sense B GAccAGAGGGAucuAGAAA TTB (SEQ 79); antisense UUUcuAGAucccucuGGucUU (SEQ 80) (sense GACCAGAGGGAUCUAGAAATT; antisense UUUCUAGAUCCCUCUGGUCUU; sense: sugars from the 5' end d2 f2 d7 f3 d7, [invAb] at 5' end, 3' end, backbone not given here; antisense: sugars from the 5' end rrrffmmmfffffffmmffmm, backbone not given here)	–	–	4.8 ± 6.3	34.4 ± 3.6%
29979-DC: Bach1 siNA duplex, target site 1523 (mouse); sense B cGGAcuuucAcAAcucucA TTB (SEQ 107); antisense UGAGAGuuGuGAAAGuccGUU (SEQ 108) (sense CGGACUUUCACAACUCUCATT; antisense UGAGAGUUGUGAAAGUCCGUU; sense: DNA at AGT, 2'-fluoro at CU, [invAb] at 5' end, 3' end, backbone not given here; antisense: sugars from the 5' end rrrmmmffmfmmmmmfffmmm, backbone not given here)	–	–	62.4 ± 2.6	−18.1 ± 18^ %
